Experimental findings from ChEMBL document CHEMBL4477207, “Discovery of Novel 3-Quinoline Carboxamides as Potent, Selective, and Orally Bioavailable Inhibitors of Ataxia Telangiectasia Mutated (ATM) Kinase” (J Med Chem, 2016) are described below.

Calls of active or inactive are those of the source. No cut-off for these calls is given here.
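Throughout, for logD: determined by the shake flask method.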

Phosphatidylinositol 4,5-bisphosphate 3-kinase catalytic subunit gamma isoform, sequence (P48736 whole entry, canonical isoform): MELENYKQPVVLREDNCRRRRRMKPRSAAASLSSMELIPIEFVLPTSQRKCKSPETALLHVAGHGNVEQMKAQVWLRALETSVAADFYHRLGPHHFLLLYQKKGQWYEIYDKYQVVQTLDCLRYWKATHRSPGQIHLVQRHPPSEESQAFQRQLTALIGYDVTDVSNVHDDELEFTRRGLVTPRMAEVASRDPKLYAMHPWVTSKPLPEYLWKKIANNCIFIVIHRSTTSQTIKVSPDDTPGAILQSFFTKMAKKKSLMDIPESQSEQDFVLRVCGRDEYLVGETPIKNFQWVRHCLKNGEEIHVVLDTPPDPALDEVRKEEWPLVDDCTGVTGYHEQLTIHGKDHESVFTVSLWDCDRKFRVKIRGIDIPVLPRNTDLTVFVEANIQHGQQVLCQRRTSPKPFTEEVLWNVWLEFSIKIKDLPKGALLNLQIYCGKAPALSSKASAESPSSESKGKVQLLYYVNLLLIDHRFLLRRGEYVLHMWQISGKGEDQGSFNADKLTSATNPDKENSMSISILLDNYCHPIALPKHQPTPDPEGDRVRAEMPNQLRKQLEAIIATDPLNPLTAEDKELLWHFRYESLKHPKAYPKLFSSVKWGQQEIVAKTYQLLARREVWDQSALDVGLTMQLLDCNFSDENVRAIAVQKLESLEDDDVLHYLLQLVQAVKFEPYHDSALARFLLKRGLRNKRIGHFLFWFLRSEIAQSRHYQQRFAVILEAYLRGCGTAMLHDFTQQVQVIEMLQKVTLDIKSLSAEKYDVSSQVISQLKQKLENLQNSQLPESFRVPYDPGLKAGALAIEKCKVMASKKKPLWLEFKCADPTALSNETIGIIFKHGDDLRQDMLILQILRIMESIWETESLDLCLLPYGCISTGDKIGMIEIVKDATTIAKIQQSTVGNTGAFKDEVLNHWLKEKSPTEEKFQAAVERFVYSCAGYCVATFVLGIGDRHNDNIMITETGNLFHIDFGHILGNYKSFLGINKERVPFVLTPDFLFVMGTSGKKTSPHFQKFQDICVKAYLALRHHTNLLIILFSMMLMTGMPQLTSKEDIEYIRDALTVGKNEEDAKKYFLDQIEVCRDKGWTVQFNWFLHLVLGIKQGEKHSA

The target in one series is T1, Serine-protein kinase ATM (Homo sapiens, UniProt Q13315). Nature of the series: Inhibition of ATM phosphorylation at Ser-1981 residue in human HT-29 cells incubated for 1 hr followed by X-ray irradiation by Hoechst staining based fluorescence plate reader analysis. Type of series: cell-based.
Settings: not given
In general, IC50 refers to the concentration that inhibits the measured activity by half. With `CCC(CC)CNc1c(C(N)=O)cnc2ccc(-c3ccc(CO)nc3)cc12`, 87 nM corresponded to half-maximal inhibition (IC50).

Turning to `CCC(CC)CNc1c(C(N)=O)cnc2ccc(-c3ccc(COC)nc3)cc12`, it took 45 nM to reach half-maximal inhibition (IC50).

Molecule `CCC(CC)CNc1c(C(N)=O)cnc2ccc(-c3ccc(COC)cc3)cc12` displayed a concentration for half-maximal inhibition (IC50) of 373 nM.

Molecule `NC(=O)c1cnc2ccc(-c3cccnc3)cc2c1NCC1CCCCC1` showed an IC50 of 456 nM.

In the next series the target is Serine/threonine-protein kinase ATR (Homo sapiens, UniProt Q13535). The series can be described thus: Inhibition of ATR in human HT-29 cells assessed as reduction in Chk1 phosphorylation at Ser-345 residue after 60 mins in presence of 4-nitroquinoline-1-oxide by Hoechst 33258 staining based plate reader analysis. Type of series: cell-based.
Settings: not given
`COc1cc2ncnc(-n3nc(-c4ccccn4)nc3N)c2cc1OC`: the IC50 was over 30000 nM.

Regarding `CCC(CC)CNc1c(C(N)=O)cnc2ccc(-c3ccc(CO)nc3)cc12`, the IC50 was over 13000 nM.

`CCC(CC)CNc1c(C(N)=O)cnc2ccc(-c3ccc(COC)nc3)cc12`: the 50% inhibitory concentration (IC50) is over 30000 nM.

On to `O=c1cc(-c2cccc3c2Sc2ccccc2S3)oc(N2CCOCC2)c1` [KU-55933], for which the IC50 is over 30000 nM.

For `CCC(CC)CNc1c(C(N)=O)cnc2ccc(-c3ccc(COC)cc3)cc12`, the IC50 was over 30000 nM.

Turning to `NC(=O)c1cnc2ccc(-c3cccnc3)cc2c1NCC1CCCCC1`, the IC50 came to 3000 nM.

Another series deals with Serine/threonine-protein kinase mTOR (Homo sapiens, UniProt P42345). Nature of the series: Inhibition of C-terminal FLAG-tagged recombinant mTOR (1362 to 2549 residues) (unknown origin) using Biotin-Ahx-Lys-Lys-Ala-Asn-Gln-Val-Phe-Leu-Gly-Phe-Thr-Tyr-Val-Ala-Pro-Ser-Val-Leu-Glu-Ser-Val-Lys-Glu-NH2 as substrate after 90 mins by AlphaScreen assay.
Settings: not given
On the technique in general: In Alpha technology, singlet oxygen from a donor bead excites a nearby acceptor bead.
For `C[C@@H]1CN(CC(=O)Nc2ccc3c(c2)Cc2cccc(-c4cc(=O)cc(N5CCOCC5)o4)c2S3)C[C@H](C)O1`, the IC50 was determined as 6550 nM.

As to `COc1cc2ncnc(-n3nc(-c4ccccn4)nc3N)c2cc1OC`, the IC50 was 4590 nM.

Take `O=c1cc(-c2cccc3c2Sc2ccccc2S3)oc(N2CCOCC2)c1` [KU-55933]: the IC50 turned out to be 5580 nM.

A further series addresses DNA-dependent protein kinase catalytic subunit (Homo sapiens, UniProt P78527). Nature of the series: Inhibition of DNAPK (unknown origin) using p53-based peptide substrate preincubated for 5 min prior to ATP addition.
Settings: not given
The molecule `COc1cc2ncnc(-n3nc(-c4ccccn4)nc3N)c2cc1OC` gave an IC50 of 879 nM.

For another series, the target named is Phosphatidylinositol 4,5-bisphosphate 3-kinase catalytic subunit alpha isoform (Homo sapiens, UniProt P42336). Nature of the series: Inhibition of human recombinant PI3Kalpha using PIP2/ATP as substrate incubated for 20 mins followed by substrate addition by Kinase Glo reagent based luminescence assay.
Phosphatidylinositol 4,5-bisphosphate 3-kinase catalytic subunit alpha isoform, sequence (P42336 whole entry, canonical isoform): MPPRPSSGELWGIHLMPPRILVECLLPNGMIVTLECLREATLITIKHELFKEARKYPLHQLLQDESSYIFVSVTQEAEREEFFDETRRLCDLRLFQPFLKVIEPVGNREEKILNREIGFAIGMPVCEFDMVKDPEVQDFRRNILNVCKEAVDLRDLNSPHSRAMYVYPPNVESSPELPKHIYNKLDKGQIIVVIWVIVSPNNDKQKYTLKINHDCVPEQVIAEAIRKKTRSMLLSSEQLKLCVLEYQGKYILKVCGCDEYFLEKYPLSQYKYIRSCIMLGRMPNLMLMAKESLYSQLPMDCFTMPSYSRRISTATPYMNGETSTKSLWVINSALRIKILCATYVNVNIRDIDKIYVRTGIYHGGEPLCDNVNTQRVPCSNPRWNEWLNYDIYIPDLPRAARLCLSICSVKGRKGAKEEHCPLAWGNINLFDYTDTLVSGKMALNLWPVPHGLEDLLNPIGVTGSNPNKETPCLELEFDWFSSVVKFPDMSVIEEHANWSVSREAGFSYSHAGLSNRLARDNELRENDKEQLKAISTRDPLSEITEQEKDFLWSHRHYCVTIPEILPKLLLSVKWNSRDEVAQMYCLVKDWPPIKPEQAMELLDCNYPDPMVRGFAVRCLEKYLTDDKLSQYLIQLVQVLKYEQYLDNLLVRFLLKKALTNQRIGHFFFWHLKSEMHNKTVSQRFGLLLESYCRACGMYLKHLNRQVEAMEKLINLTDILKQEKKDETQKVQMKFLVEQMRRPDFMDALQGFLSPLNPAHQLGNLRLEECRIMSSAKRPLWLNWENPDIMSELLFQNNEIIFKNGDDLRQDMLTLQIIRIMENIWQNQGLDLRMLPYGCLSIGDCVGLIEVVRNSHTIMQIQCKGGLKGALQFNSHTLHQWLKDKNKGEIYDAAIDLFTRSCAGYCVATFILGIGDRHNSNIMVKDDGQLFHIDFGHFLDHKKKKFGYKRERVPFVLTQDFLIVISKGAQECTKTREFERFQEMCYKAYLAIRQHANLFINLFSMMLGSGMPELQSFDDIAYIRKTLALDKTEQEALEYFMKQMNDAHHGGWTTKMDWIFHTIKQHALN
Settings: not given
(Kinase-Glo reads ATP consumption through a luciferase reaction.)
Consider `C[C@@H]1CN(CC(=O)Nc2ccc3c(c2)Cc2cccc(-c4cc(=O)cc(N5CCOCC5)o4)c2S3)C[C@H](C)O1`, for which the IC50 worked out at 452 nM.

Regarding `COc1cc2ncnc(-n3nc(-c4ccccn4)nc3N)c2cc1OC`, the IC50 turned out to be 1490 nM.

With `O=c1cc(-c2cccc3c2Sc2ccccc2S3)oc(N2CCOCC2)c1` [KU-55933], the IC50 was determined as 458 nM.

In a further series the target is Phosphatidylinositol 4,5-bisphosphate 3-kinase catalytic subunit beta isoform (Homo sapiens, UniProt P42338). Nature of the series: Inhibition of human recombinant PI3Kbeta using PIP2/ATP as substrate incubated for 20 mins followed by substrate addition by Kinase Glo reagent based luminescence assay.
Phosphatidylinositol 4,5-bisphosphate 3-kinase catalytic subunit beta isoform, sequence (P42338 whole entry, canonical isoform): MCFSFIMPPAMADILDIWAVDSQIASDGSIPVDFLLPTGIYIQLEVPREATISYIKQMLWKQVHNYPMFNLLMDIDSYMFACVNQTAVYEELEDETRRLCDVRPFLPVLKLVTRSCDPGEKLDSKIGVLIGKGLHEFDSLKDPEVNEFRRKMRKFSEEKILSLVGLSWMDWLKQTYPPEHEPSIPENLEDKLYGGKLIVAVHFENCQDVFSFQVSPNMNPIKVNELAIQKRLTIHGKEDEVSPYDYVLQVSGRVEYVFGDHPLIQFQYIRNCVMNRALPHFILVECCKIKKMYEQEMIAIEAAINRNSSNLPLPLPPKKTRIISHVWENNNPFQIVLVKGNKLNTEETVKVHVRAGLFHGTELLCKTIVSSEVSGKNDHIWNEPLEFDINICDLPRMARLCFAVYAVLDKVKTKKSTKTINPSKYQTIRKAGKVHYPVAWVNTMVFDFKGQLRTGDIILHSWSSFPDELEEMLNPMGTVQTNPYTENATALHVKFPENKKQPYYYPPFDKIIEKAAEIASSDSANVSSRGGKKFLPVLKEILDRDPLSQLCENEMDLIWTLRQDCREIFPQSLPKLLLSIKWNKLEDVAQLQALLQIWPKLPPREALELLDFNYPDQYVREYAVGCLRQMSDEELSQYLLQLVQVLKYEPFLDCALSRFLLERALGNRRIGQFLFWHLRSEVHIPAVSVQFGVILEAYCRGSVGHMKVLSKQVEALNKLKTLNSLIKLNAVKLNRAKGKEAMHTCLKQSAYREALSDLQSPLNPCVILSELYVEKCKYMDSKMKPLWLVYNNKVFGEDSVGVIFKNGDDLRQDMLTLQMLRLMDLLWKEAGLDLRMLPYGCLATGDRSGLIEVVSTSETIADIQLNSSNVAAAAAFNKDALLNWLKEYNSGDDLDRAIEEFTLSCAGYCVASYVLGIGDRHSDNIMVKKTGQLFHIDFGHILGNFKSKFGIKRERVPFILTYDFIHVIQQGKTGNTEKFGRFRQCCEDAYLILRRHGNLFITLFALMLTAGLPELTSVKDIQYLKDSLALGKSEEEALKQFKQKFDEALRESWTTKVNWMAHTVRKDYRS
Settings: not given
In the case of `C[C@@H]1CN(CC(=O)Nc2ccc3c(c2)Cc2cccc(-c4cc(=O)cc(N5CCOCC5)o4)c2S3)C[C@H](C)O1`, the IC50 was found to be 2140 nM.

Consider `COc1cc2ncnc(-n3nc(-c4ccccn4)nc3N)c2cc1OC`, for which the IC50 was found to be 5440 nM.

Regarding `O=c1cc(-c2cccc3c2Sc2ccccc2S3)oc(N2CCOCC2)c1` [KU-55933], the IC50 came out at 133 nM.

The next series concerns the target Phosphatidylinositol 4,5-bisphosphate 3-kinase catalytic subunit gamma isoform (Homo sapiens, UniProt P48736). Nature of the series: Inhibition of human recombinant PI3Kgamma using PIP2/ATP as substrate incubated for 20 mins followed by substrate addition by Kinase Glo reagent based luminescence assay.
Settings: not given
Turning to `C[C@@H]1CN(CC(=O)Nc2ccc3c(c2)Cc2cccc(-c4cc(=O)cc(N5CCOCC5)o4)c2S3)C[C@H](C)O1`, the IC50 is over 1000 nM.

Turning to `COc1cc2ncnc(-n3nc(-c4ccccn4)nc3N)c2cc1OC`, the IC50 was over 1000 nM.

For `O=c1cc(-c2cccc3c2Sc2ccccc2S3)oc(N2CCOCC2)c1` [KU-55933], the IC50 is over 1000 nM.

The target in a further series is Glycogen synthase kinase-3 beta (Homo sapiens, UniProt P49841). The series can be described thus: Inhibition of GSK3beta (unknown origin).
Glycogen synthase kinase-3 beta, sequence (P49841 whole entry): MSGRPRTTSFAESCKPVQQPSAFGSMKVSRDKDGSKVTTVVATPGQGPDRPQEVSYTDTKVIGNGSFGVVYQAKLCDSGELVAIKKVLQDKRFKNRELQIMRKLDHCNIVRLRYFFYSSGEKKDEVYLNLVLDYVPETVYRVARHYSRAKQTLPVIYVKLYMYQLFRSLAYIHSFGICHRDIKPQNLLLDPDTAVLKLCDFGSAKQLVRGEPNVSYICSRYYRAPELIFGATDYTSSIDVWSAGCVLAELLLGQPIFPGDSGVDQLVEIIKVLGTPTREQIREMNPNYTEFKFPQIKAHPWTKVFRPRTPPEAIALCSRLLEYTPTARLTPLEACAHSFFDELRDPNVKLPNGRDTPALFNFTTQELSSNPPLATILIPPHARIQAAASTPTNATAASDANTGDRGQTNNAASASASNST
Settings: not given
As for `CCC(CC)CNc1c(C(N)=O)cnc2ccc(-c3ccc(COC)nc3)cc12`, the IC50 was over 100000 nM.

The target in a further series is Vascular endothelial growth factor receptor 2 (Homo sapiens, UniProt P35968). The series can be described thus: Inhibition of KDR (unknown origin).
Settings: not given
For the molecule `CCC(CC)CNc1c(C(N)=O)cnc2ccc(-c3ccc(COC)nc3)cc12`, the half-inhibitory concentration (IC50) was 82000 nM.

A further series has as its target T1, Serine-protein kinase ATM. The series can be described thus: Inhibition of ATM in human HT-29 cells assessed as reduction in ATM phosphorylation at Ser-1981 residue up to 30 uM incubated for 1 hr followed by X-ray irradiation by Hoeschst staining based plate reader analysis. Type of series: cell-based.
Settings: not given
`Cc1ccc([C@@H](C)Nc2c(C(N)=O)cnc3ccc(C#N)cc23)cc1`: the inhibition result is “inactive”.

Another series deals with SW-620. Nature of the series: Antitumor activity against human SW620 cells xenografted in immunocompromised athymic Swiss nude mouse assessed as tumor growth inhibition at 50 mg/kg, ip once in a week for 3 weeks regime starting day 1 post xenograft. The format is functional, organism-based.
Settings: not given
(Xenograft models place foreign cells or tissue in a host animal.)
For the molecule `CCc1c2c(nc3ccc(OC(=O)N4CCC(N5CCCCC5)CC4)cc13)-c1cc3c(c(=O)n1C2)COC(=O)[C@]3(O)CC`, the TGI result is “Active”.

For a further series, the target named is Voltage-gated inwardly rectifying potassium channel KCNH2 (Homo sapiens, UniProt Q12809).
Voltage-gated inwardly rectifying potassium channel KCNH2, sequence (Q12809 whole entry): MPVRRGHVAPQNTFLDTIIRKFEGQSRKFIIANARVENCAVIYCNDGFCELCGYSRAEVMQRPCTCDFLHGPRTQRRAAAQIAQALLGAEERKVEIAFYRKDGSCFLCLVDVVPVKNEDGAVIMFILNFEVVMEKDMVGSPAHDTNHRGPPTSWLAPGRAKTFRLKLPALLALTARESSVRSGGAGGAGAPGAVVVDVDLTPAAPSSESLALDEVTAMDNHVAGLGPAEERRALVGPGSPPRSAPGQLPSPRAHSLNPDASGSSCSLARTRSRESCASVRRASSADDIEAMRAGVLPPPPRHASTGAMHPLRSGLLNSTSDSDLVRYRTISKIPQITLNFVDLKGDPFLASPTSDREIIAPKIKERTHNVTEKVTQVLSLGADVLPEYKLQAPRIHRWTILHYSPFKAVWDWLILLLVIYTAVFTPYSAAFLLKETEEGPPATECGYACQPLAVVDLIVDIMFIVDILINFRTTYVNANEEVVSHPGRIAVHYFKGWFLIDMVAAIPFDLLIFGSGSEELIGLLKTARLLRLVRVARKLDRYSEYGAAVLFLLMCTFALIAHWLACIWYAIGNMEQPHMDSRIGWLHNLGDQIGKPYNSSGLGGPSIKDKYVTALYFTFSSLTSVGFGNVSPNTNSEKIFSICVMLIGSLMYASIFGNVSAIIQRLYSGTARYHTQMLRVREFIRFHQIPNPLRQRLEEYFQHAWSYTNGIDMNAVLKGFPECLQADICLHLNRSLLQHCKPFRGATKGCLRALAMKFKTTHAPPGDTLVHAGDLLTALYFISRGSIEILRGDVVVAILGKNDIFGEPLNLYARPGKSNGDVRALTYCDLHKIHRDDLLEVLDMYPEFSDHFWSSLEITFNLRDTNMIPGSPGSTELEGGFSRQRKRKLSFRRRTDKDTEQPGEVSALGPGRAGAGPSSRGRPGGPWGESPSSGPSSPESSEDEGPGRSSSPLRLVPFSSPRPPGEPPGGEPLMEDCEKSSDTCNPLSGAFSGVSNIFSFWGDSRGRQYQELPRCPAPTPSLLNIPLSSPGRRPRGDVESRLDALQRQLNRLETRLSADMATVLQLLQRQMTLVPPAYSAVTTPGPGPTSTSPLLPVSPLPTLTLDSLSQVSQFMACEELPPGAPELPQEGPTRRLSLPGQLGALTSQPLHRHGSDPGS
Assay: not given
Settings: not given
For `CCC(CC)CNc1c(C(N)=O)cnc2ccc(-c3ccc(CO)nc3)cc12`, the IC50 came to 3100 nM.

On to `CCC(CC)CNc1c(C(N)=O)cnc2ccc(-c3ccc(COC)nc3)cc12`, for which half-maximal inhibition (IC50) required 2500 nM.

For `CCC(CC)CNc1c(C(N)=O)cnc2ccc(-c3ccc(COC)cc3)cc12`, it took 18000 nM to reach half-maximal inhibition (IC50).

Consider `NC(=O)c1cnc2ccc(-c3cccnc3)cc2c1NCC1CCCCC1`, for which the IC50 came to 830 nM.

Tested on in another series: not listed separately
Nature of the series: in vitro. The conditions noted are these: human, hepatocytes.
The hepatocyte CLint is a measure of how fast metabolising enzymes remove a compound, apart from limits set by blood flow. In turn, `C[C@@H]1CN(CC(=O)Nc2ccc3c(c2)Cc2cccc(-c4cc(=O)cc(N5CCOCC5)o4)c2S3)C[C@H](C)O1` registered a hepatocyte CLint at 1.5 h of 13 µL/min/1e6 cells.

As to `COc1cc2ncnc(-n3nc(-c4ccccn4)nc3N)c2cc1OC`, the hepatocyte CLint at 1.5 h worked out at 4.5 µL/min/1e6 cells.

Molecule `CCC(CC)CNc1c(C(N)=O)cnc2ccc(-c3ccc(CO)nc3)cc12` registered a hepatocyte CLint at 1.5 h of 150 µL/min/1e6 cells.

Consider `CCC(CC)CNc1c(C(N)=O)cnc2ccc(-c3ccc(COC)nc3)cc12`, for which the hepatocyte CLint at 1.5 h is under 6.8 µL/min/1e6 cells.

`O=c1cc(-c2cccc3c2Sc2ccccc2S3)oc(N2CCOCC2)c1` [KU-55933] returned a hepatocyte CLint at 1.5 h of 33 µL/min/1e6 cells.

In the case of `CCC(CC)CNc1c(C(N)=O)cnc2ccc(-c3ccc(COC)cc3)cc12`, the intrinsic clearance (hepatocyte CLint) at 1.5 h came to 21 µL/min/1e6 cells.

As to `NC(=O)c1cnc2ccc(-c3cccnc3)cc2c1NCC1CCCCC1`, the hepatocyte CLint at 1.5 h was determined as 40 µL/min/1e6 cells.

Tested on in another series: not listed separately
The series can be described thus: in vitro. The conditions noted are these: rat, hepatocytes.
As to `C[C@@H]1CN(CC(=O)Nc2ccc3c(c2)Cc2cccc(-c4cc(=O)cc(N5CCOCC5)o4)c2S3)C[C@H](C)O1`, the hepatocyte CLint at 1.5 h came to 22 µL/min/1e6 cells.

For `COc1cc2ncnc(-n3nc(-c4ccccn4)nc3N)c2cc1OC`, the hepatocyte CLint at 1.5 h was found to be 89 µL/min/1e6 cells.

`CCC(CC)CNc1c(C(N)=O)cnc2ccc(-c3ccc(CO)nc3)cc12`: the hepatocyte CLint at 1.5 h was over 300 µL/min/1e6 cells.

`CCC(CC)CNc1c(C(N)=O)cnc2ccc(-c3ccc(COC)nc3)cc12` returned a hepatocyte CLint at 1.5 h of 110 µL/min/1e6 cells.

Consider `O=c1cc(-c2cccc3c2Sc2ccccc2S3)oc(N2CCOCC2)c1` [KU-55933], for which the hepatocyte CLint at 1.5 h worked out at 230 µL/min/1e6 cells.

`CCC(CC)CNc1c(C(N)=O)cnc2ccc(-c3ccc(COC)cc3)cc12` showed a hepatocyte CLint at 1.5 h of 76 µL/min/1e6 cells.

As to `NC(=O)c1cnc2ccc(-c3cccnc3)cc2c1NCC1CCCCC1`, the hepatocyte CLint at 1.5 h was 130 µL/min/1e6 cells.

Tested on in the next series: not listed separately
The series can be described thus: physchem. The following applies: octanol/buffer, pH 7.4.
In general, logD refers to lipophilicity at a set pH, counting ionised and neutral species. A higher logD goes with a more lipophilic compound. `C[C@@H]1CN(CC(=O)Nc2ccc3c(c2)Cc2cccc(-c4cc(=O)cc(N5CCOCC5)o4)c2S3)C[C@H](C)O1` displayed a logD of 3.6.

`COc1cc2ncnc(-n3nc(-c4ccccn4)nc3N)c2cc1OC` displayed a logD of 2.6.

In turn, `CCC(CC)CNc1c(C(N)=O)cnc2ccc(-c3ccc(CO)nc3)cc12` returned a logD of 3.7.

In turn, `CCC(CC)CNc1c(C(N)=O)cnc2ccc(-c3ccc(COC)nc3)cc12` registered a log distribution coefficient (logD) of over 4.3.

`O=c1cc(-c2cccc3c2Sc2ccccc2S3)oc(N2CCOCC2)c1` [KU-55933] gave a logD of 4.

Regarding `CCC(CC)CNc1c(C(N)=O)cnc2ccc(-c3ccc(COC)cc3)cc12`, the logD turned out to be 4.1.

`NC(=O)c1cnc2ccc(-c3cccnc3)cc2c1NCC1CCCCC1` showed a logD of over 4.3.
